Measured values published in article PMC6719666 (Acta Crystallographica. Section D, Structural Biology, 2019).

Target: T1, BcGDHγα (Burkholderia cepacia, UniProt Q8GQE7)
T1 construct: gene gdhAlpha; alpha (539 aa, 60 kDa) with C-terminal His tag; gamma 168 aa with signal peptide, mature 121 aa (13 kDa); pTrc99A, E. coli BL21(DE3); no beta-subunit; heterodimer; purified by Ni and cation exchange; with Glucose dehydrogenase gamma subunit (hitchhiker protein, small subunit)
T1 sequence (Q8GQE7 1-539): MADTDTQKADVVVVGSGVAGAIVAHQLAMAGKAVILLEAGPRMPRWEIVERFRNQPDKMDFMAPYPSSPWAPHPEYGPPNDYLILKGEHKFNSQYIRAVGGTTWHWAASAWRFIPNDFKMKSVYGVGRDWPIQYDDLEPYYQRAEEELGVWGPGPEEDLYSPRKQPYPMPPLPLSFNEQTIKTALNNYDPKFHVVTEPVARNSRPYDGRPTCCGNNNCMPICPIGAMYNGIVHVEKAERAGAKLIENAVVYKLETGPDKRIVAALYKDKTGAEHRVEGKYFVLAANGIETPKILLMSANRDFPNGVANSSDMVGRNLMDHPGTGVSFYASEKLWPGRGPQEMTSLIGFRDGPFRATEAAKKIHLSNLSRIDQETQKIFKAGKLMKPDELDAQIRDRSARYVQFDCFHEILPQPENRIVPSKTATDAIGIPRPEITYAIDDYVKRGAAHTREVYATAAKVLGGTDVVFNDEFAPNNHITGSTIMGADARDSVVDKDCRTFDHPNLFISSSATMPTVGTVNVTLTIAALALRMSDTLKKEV
T1 sequence (A0A0H3KLY3 48-168 partner): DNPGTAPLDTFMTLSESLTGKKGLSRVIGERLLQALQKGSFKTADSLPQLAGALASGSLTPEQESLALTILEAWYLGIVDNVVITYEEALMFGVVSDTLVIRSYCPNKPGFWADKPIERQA
Assay: X-ray crystal structure, […] Å
Type: binding
Settings: covalent; C8M of FAD to His105 of the alpha-subunit

Structure (SMILES): Cc1cc2nc3c(=O)[nH]c(=O)nc-3n(C[C@H](O)[C@H](O)[C@H](O)COP(=O)(O)OP(=O)(O)OC[C@H]3O[C@@H](n4cnc5c(N)ncnc54)[C@H](O)[C@@H]3O)c2cc1C [FAD]
- X-ray crystal structure, 2.6 Å: a covalent bond was deemed to form between FAD and His105 in the α-subunit
